Assay results: US9029359B2, “Heteroaryl Btk inhibitors” (Biogen Idec MA, Inc., priority 2009, dated 2015)

Target: T1, BTK (Homo sapiens, UniProt Q06187)
T1 construct: purchased Upstate 14-552
Assay: In vitro BTK kinase assay: BTK-POLYGAT-LS ASSAY
Type: biochemical
Details: ATP 10 uM
Method in brief: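 BTK phosphorylation of polyGAT (100 nM final) with ATP at 10 μM final, 10 mM Tris-HCl pH 7.5 kinase buffer, quenched by EDTA after 30 min. Potency given as IC50.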

T1 sequence (Q06187 whole entry): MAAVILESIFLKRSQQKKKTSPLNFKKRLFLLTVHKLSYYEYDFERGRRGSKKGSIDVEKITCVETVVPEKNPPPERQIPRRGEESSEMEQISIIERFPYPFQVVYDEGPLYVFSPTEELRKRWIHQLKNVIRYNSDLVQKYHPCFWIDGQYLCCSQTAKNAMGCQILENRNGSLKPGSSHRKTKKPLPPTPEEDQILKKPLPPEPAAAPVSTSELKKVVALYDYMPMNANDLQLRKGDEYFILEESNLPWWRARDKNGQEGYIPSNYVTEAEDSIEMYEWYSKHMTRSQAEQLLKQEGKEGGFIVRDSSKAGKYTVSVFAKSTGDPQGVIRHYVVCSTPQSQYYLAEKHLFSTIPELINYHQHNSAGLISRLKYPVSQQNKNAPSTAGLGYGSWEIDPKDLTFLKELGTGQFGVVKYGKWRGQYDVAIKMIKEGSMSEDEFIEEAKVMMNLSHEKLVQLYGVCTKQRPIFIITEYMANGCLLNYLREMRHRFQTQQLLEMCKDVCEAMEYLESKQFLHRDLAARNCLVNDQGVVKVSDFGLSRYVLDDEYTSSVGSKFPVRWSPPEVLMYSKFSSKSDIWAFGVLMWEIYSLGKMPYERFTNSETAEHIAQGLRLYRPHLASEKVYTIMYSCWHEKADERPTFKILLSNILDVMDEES

Row | IC50 [nM] | Compound
1 | 100 to 999 | Cc1ccc(NCC(=O)NC2CCCN(c3ncnc4[nH]ccc34)C2)cc1C(F)(F)F (centres unmarked) [Example 65, (N-(1-(7H-pyrrolo[2,3-d]pyrimidin-4-yl)piperidin-3-yl)-2-(4-methyl-3-(trifluoromethyl)phenylamino)acetamide)]
2 | 1000 to 10000 | Cn1ccc(NCC(=O)NC2CCCN(c3ncnc4[nH]ccc34)C2)n1 (centres unmarked) [Example 80, (N-(1-(7H-pyrrolo[2,3-d]pyrimidin-4-yl)piperidin-3-yl)-2-(1-methyl-1H-pyrazol-3-ylamino)acetamide)]
3 | 100 to 999 | Cc1ccc(C)n1-c1cccc(NCC(=O)N[C@@H]2CCCN(c3ncnc4[nH]ccc34)C2)c1 [Example 302]
4 | 1000 to 10000 | CNS(=O)(=O)c1ccccc1NCC(=O)N[C@@H]1CCCN(c2ncnc3[nH]ccc23)C1 [Example 457]
5 | 1000 to 10000 | O=C(N[C@@H]1CCCN(c2ncnc3[nH]ccc23)C1)C1(Nc2ccccc2)CC1 [Example 126, (R)—N-(1-(7H-pyrrolo[2,3-d]pyrimidin-4-yl)piperidin-3-yl)-1-(phenylamino)cyclopropanecarboxamide]
6 | > 10000 | NS(=O)(=O)c1cccc(NCC(=O)NC2CCCN(c3ncnc4[nH]ccc34)C2)c1 (centres unmarked) [Example 26, (N-(1-(7H-pyrrolo[2,3-d]pyrimidin-4-yl)piperidin-3-yl)-2-(3-sulfamoylphenylamino)acetamide)]
7 | < 100 | O=C(CNc1ccccc1S(=O)(=O)N1CCCCC1)N[C@@H]1CCCN(c2ncnc3[nH]ccc23)C1 [Example 182]
8 | 100 to 999 | CC(C)c1ccccc1N[C@@H](C(=O)N[C@@H]1CCCN(c2ncnc3[nH]ccc23)C1)[C@H](C)O [Example 239]
9 | > 10000 | O=C(CNC1CCCN(c2ncnc3[nH]ccc23)C1)Nc1ccccc1 (centres unmarked) [Example 363]
10 | 100 to 999 | COc1ccccc1NCC(=O)N[C@@H]1CCCN(c2ncnc3[nH]ccc23)C1 [Example 309]
11 | 100 to 999 | CC[C@@H](Nc1cc(Cl)cc(Cl)c1)C(=O)N[C@H]1CN(c2ncnc3[nH]ncc23)CC[C@@H]1C [Example 369]
12 | > 10000 | O=C(CNc1cccc2ccncc12)NC1CCCN(c2ncnc3[nH]ccc23)C1 (centres unmarked) [Example 329]
13 | < 100 | O=C(CNc1ccccc1S(=O)(=O)N1CCC(C(F)(F)F)CC1)N[C@@H]1CCCN(c2ncnc3[nH]ncc23)C1 [Example 228]
14 | 100 to 999 | CN(C(=O)CNc1ccccc1)C1CCCN(c2ncnc3[nH]ccc23)C1 (centres unmarked) [Example 223]
15 | 100 to 999 | O=C(CNc1ccccc1F)N[C@@H]1CCCN(c2ncnc3[nH]ccc23)C1 [Example 318]
16 | 1000 to 10000 | O=C(CNc1ccccn1)NC1CCCN(c2ncnc3[nH]ccc23)C1 (centres unmarked) [Example 352]
17 | 100 to 999 | COc1cccc(NCC(=O)NC2CCCN(c3ncnc4[nH]ccc34)C2)c1 (centres unmarked) [Example 32, (N-(1-(7H-pyrrolo[2,3-d]pyrimidin-4-yl)piperidin-3-yl)-2-(3-methoxyphenylamino)acetamide)]
18 | 1000 to 10000 | COc1cccc(C)c1NCC(=O)N[C@@H]1CCCN(c2ncnc3[nH]ccc23)C1 [Example 452]
19 | 1000 to 10000 | O=C(N[C@@H]1CCCN(c2ncnc3[nH]ccc23)C1)[C@@H](Cc1ccccc1)Nc1ccccc1 [Example 104, (R)—N—((R)-1-(7H-pyrrolo[2,3-d]pyrimidin-4-yl)piperidin-3-yl)-3-phenyl-2-(phenylamino)propanamide]
20 | 1000 to 10000 | O=C(CNc1ccc(F)cc1F)N[C@@H]1CCCN(c2ncnc3[nH]ccc23)C1 [Example 454]

Row | IC50 [nM] | Compound
21 | 1000 to 10000 | O=C(CNc1cccc2cccnc12)NC1CCCN(c2ncnc3[nH]ccc23)C1 (centres unmarked) [Example 81, (N-(1-(7H-pyrrolo[2,3-d]pyrimidin-4-yl)piperidin-3-yl)-2-(quinolin-8-ylamino)acetamide)]
22 | > 10000 | O=C(CNc1ccccc1)N[C@H]1CCN(c2ncnc3[nH]ccc23)C1 [Example 359]
23 | < 100 | CC(C)c1ccccc1NCC(=O)N[C@@H]1CCCN(c2ncnc3[nH]ncc23)C1 [Example 219]
24 | 1000 to 10000 | O=C(CNc1cccc2cnccc12)NC1CCCN(c2ncnc3[nH]ccc23)C1 (centres unmarked) [Example 333]
25 | 1000 to 10000 | C[C@@H](O)[C@@H](Nc1cc(F)cc(Cl)c1)C(=O)N[C@@H]1CCCN(c2ncnc3[nH]ccc23)C1 [Example 408]
26 | 100 to 999 | CC(C)c1ccccc1N[C@@H](C(=O)N[C@@H]1CCCN(c2ncnc3[nH]ccc23)C1)C(C)C [Example 263]
27 | > 10000 | O=C(CNc1ccn(-c2ccccc2)n1)NC1CCCN(c2ncnc3[nH]ccc23)C1 (centres unmarked) [Example 79, (N-(1-(7H-pyrrolo[2,3-d]pyrimidin-4-yl)piperidin-3-yl)-2-(1-phenyl-1H-pyrazol-3-ylamino)acetamide)]
28 | < 100 | O=C(CNc1ccccc1S(=O)(=O)N1CCC(F)(F)CC1)N[C@@H]1CCCN(c2ncnc3[nH]ncc23)C1 [Example 176]
29 | 1000 to 10000 | O=C(COc1ccccc1)NC1CCCN(c2ncnc3[nH]ccc23)C1 (centres unmarked) [Example 8, (N-(1-(7H-pyrrolo[2,3-d]pyrimidin-4-yl)piperidin-3-yl)-2-phenoxyacetamide)]
30 | 100 to 999 | C[C@H]1CC[C@@H](NC(=O)[C@H](Nc2cc(F)cc(Cl)c2)C2CC2)CN1c1ncnc2[nH]ncc12 [Example 148, (R)-2-(3-chloro-5-fluorophenylamino)-2-cyclopropyl-N-((3R,6S)-6-methyl-1-(1H-pyrazolo[3,4-d]pyrimidin-4-yl)piperidin-3-yl)acetamide]
31 | < 100 | O=C(CNc1ccccc1OC1CCCC1)N[C@@H]1CCCN(c2ncnc3[nH]ncc23)C1 [Example 245]
32 | < 100 | O=C(CNc1ccccc1OC1CCCC1)N[C@@H]1CCCN(c2ncnc3[nH]ccc23)C1 [Example 222]
33 | 100 to 999 | CNc1cc(N2CCC[C@@H](NC(=O)CNc3cc(Cl)cc(Cl)c3)C2)ncn1 [Example 144, (R)-2-(3,5-dichlorophenylamino)-N-(1-(6-(methylamino)pyrimidin-4-yl)piperidin-3-yl)acetamide]
34 | 100 to 999 | O=C(CNc1cccc(N2CCCC2)c1)NC1CCCN(c2ncnc3[nH]ccc23)C1 (centres unmarked) [Example 56, (N-(1-(7H-pyrrolo[2,3-d]pyrimidin-4-yl)piperidin-3-yl)-2-(3-(pyrrolidin-1-yl)phenylamino)acetamide)]
35 | 100 to 999 | Cc1ccc(Cl)cc1NCC(=O)N[C@@H]1CCCN(c2ncnc3[nH]ccc23)C1 [Example 295]
36 | 100 to 999 | CN(C)S(=O)(=O)c1ccccc1NCC(=O)N[C@@H]1CCCN(c2ncnc3[nH]ncc23)C1 [Example 375]
37 | 1000 to 10000 | NC(=O)c1cccc(NCC(=O)N[C@@H]2CCCN(c3ncnc4[nH]ccc34)C2)c1 [Example 434]
38 | 100 to 999 | O=C(CNc1ccccc1N1CCCCC1)N[C@@H]1CCCN(c2ncnc3[nH]ccc23)C1 [Example 290]
39 | 1000 to 10000 | Cc1ccc(NCC(=O)N[C@@H]2CCCN(c3ncnc4[nH]ccc34)C2)c(Cl)c1 [Example 430]
40 | 100 to 999 | Cc1c(Cl)cccc1NCC(=O)NC1CCCN(c2ncnc3[nH]ccc23)C1 (centres unmarked) [Example 52, (N-(1-(7H-pyrrolo[2,3-d]pyrimidin-4-yl)piperidin-3-yl)-2-(3-chloro-2-methylphenylamino)acetamide)]

Row | IC50 [nM] | Compound
41 | 100 to 999 | O=C(CNc1cccc(Cl)c1Cl)N[C@@H]1CCCN(c2ncnc3[nH]ccc23)C1 [Example 299]
42 | 1000 to 10000 | O=C(N[C@@H]1CCCN(c2ncnc3[nH]ccc23)C1)[C@@H](CO)Nc1cc(F)cc(Cl)c1 [Example 424]
43 | < 100 | C[C@@H](O)[C@@H](Nc1cc(F)cc(Cl)c1)C(=O)N[C@H]1CN(c2ncnc3[nH]ncc23)CC[C@@H]1C [Example 226]
44 | 100 to 999 | O=C(CNc1cccc(-c2cccs2)c1)N[C@@H]1CCCN(c2ncnc3[nH]ccc23)C1 [Example 305]
45 | > 10000 | CC(C)n1ccc(NCC(=O)NC2CCCN(c3ncnc4[nH]ccc34)C2)n1 (centres unmarked) [Example 331]
46 | 1000 to 10000 | N#Cc1ccccc1NCC(=O)NC1CCCN(c2ncnc3[nH]ccc23)C1 (centres unmarked) [Example 66, (N-(1-(7H-pyrrolo[2,3-d]pyrimidin-4-yl)piperidin-3-yl)-2-(2-cyanophenylamino)acetamide)]
47 | 1000 to 10000 | O=C(N[C@@H]1CCCN(c2ncnc3[nH]ccc23)C1)[C@@H]1CCc2ccccc2N1 [Example 15, (S)—N—((R)-1-(7H-pyrrolo[2,3-d]pyrimidin-4-yl)piperidin-3-yl)-1,2,3,4-tetrahydroquinoline-2-carboxamide]
48 | > 10000 | O=C(CNC1CCCCC1)NC1CCCN(c2ncnc3[nH]ccc23)C1 (centres unmarked) [Example 354]
49 | > 10000 | O=C(CNc1cccnc1)NC1CCCN(c2ncnc3[nH]ccc23)C1 (centres unmarked) [Example 59, (N-(1-(7H-pyrrolo[2,3-d]pyrimidin-4-yl)piperidin-3-yl)-2-(pyridin-3-ylamino)acetamide)]
50 | 100 to 999 | O=C(CNc1ccc(F)cc1)N[C@@H]1CCCN(c2ncnc3[nH]ccc23)C1 [Example 413]
51 | 100 to 999 | Cn1ccc2c(N3CCC[C@@H](NC(=O)[C@H](Nc4cc(F)cc(Cl)c4)C4CC4)C3)ncnc21 [Example 136, (R)-2-(3-chloro-5-fluorophenylamino)-2-cyclopropyl-N—((R)-1-(7-methyl-7H-pyrrolo[2,3-d]pyrimidin-4-yl)piperidin-3-yl)acetamide]
52 | < 100 | CC1CCCN(S(=O)(=O)c2ccccc2NCC(=O)N[C@@H]2CCCN(c3ncnc4[nH]ncc34)C2)C1 (some centres unmarked) [Example 370]
53 | < 100 | C[C@@H](O)[C@@H](Nc1cc(Cl)cc(Cl)c1)C(=O)N[C@@H]1CCCN(c2ncnc3[nH]ncc23)C1 [Example 164]
54 | > 10000 | O=C(Nc1ccccc1)C(=O)NC1CCCN(c2ncnc3[nH]ccc23)C1 (centres unmarked) [Example 4]
55 | 1000 to 10000 | O=C(O)Cc1cccc(NCC(=O)N[C@@H]2CCCN(c3ncnc4[nH]ccc34)C2)c1 [Example 389]
56 | < 100 | O=C(CNc1ccccc1OC1CCCCC1)N[C@@H]1CCCN(c2ncnc3[nH]ccc23)C1 [Example 266]
57 | < 100 | C[C@H](O)[C@@H](Nc1cc(Cl)cc(Cl)c1)C(=O)N[C@@H]1CCCN(c2ncnc3[nH]ccc23)C1 [Example 181]
58 | 1000 to 10000 | O=C(N[C@@H]1CCCN(c2ncnc3[nH]ccc23)C1)C(Nc1ccccc1)C(F)(F)F (some centres unmarked) [Example 449]
59 | 1000 to 10000 | Cc1cccc(NC(C(=O)NC2CCCN(c3ncnc4[nH]ccc34)C2)C2CCCC2)c1 (centres unmarked) [Example 461]
